Test results reported in patent US9306235B2, “Redox flow battery” (SAMSUNG ELECTRONICS CO., LTD., priority 2010, dated 2016).

Experiment: Evaluation of organic electrolyte solubility together with a supporting electrolyte
Format: physicochemical
Settings: generation of precipitates identified
Procedure: In the case where an organic electrolyte is used together with a supporting electrolyte, solubility of the organic electrolyte is evaluated. As the supporting electrolyte, TEABF4 and SBPBF4 are added to each of 0.0M, 0.2M, and 0.5M propylene carbonate aliquots, and then 1.2M Fe(bpy)3(BF4)2 is added to a final volume of 10 mL. The generation of precipitates is identified for each case.

[1] = supporting electrolyte 0.0 Mole (0.0M) in propylene carbonate
[2] = supporting electrolyte 0.2 Mole (0.2M) in propylene carbonate
[3] = supporting electrolyte 0.5 Mole (0.5M) in propylene carbonate

| Compound | Solubility of 1.2M Fe(bpy)3(BF4)2 [1] | Solubility of 1.2M Fe(bpy)3(BF4)2 [2] | Solubility of 1.2M Fe(bpy)3(BF4)2 [3] |
| --- | --- | --- | --- |
| C1CC[N+]2(C1)CCCC2.F[B-](F)(F)F [SBPBF4, spiro-(1,1′)-bipyrrolidiniumtetrafluoroborate] | Soluble | Soluble | Soluble |
| CC[N+](CC)(CC)CC.F[B-](F)(F)F [TEABF4, tetraethylammoniumtetrafluoroborate] | Soluble | Precipitation | Precipitation |
